Assay results: US12122761B2, “2-azaspiro[3.4]octane derivatives as M4 agonists” (NOVARTIS AG, priority 2019, dated 2024)

Key:
[1] = target: T1, Cloned human M1 receptor (CHRM1) stably expressed in HEK293 cells (Homo sapiens, UniProt P11229); assay: CHRM1 Ca++ Flux Assay (agonist mode, FDSS 7000EX); assay type: cell-based; conditions: for Emax: HEK293, Percent Activity, read-out: M1 FDSS PA; for EC50: geometric mean if tested more than once
T1 construct: expressed in transfected cells; host or cells: HEK293
T1 sequence (P11229 1-460): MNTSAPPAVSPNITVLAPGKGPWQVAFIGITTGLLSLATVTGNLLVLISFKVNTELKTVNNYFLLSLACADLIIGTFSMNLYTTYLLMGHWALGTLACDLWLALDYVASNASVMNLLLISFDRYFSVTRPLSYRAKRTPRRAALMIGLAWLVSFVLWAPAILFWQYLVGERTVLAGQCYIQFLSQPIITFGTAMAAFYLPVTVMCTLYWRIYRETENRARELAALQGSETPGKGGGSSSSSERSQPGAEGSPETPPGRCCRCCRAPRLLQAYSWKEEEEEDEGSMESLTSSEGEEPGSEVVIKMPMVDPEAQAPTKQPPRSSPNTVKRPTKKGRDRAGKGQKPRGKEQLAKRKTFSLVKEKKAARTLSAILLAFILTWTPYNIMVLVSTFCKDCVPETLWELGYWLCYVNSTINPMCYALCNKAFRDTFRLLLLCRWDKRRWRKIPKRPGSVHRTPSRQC
In short: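 Compounds tested as agonists at 11 concentrations in triplicate, with calcium traces captured over 3 minutes. Cells were HEK293 with stable human CHRM1 expression, plated overnight at 25K/well and loaded with calcium dye. Responses normalized to carbachol EC100 and fitted by four-parameter nonlinear regression.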

[2] = target: T2, human cloned CHRM3 receptor (M3_CHO cells) (Homo sapiens, UniProt P20309); assay: CHRM3 Ca++ Flux Assay (agonist mode, FDSS 7000EX); assay type: cell-based; conditions: for Emax: Percent Activity measured to EC100 of Carbachol, read-out: M3 FDSS PA; for EC50: agonist mode, geometric mean if tested more than once, read-out: M3 FDSS EC50
T2 construct: expressed in transfected cells; host or cells: CHO-K1
T2 sequence (P20309 whole entry): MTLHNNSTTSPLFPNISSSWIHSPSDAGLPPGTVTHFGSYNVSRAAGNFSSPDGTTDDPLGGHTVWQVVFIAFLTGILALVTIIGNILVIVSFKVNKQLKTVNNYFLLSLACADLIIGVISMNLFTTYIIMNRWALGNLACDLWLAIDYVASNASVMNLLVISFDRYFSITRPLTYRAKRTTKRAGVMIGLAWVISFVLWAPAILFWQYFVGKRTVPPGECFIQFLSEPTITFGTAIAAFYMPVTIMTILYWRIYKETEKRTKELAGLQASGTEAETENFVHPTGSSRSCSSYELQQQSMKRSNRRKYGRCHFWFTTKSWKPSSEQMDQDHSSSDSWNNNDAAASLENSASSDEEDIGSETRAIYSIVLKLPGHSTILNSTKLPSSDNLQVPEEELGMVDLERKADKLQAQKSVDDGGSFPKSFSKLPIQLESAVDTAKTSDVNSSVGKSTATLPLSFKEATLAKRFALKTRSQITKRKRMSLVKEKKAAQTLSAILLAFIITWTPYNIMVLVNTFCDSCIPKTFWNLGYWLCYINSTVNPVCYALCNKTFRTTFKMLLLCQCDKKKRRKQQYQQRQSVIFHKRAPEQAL
In short: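 Agonist-mode calcium flux: 11-point dose responses, triplicate wells, fluorescence followed for 3 minutes. Cells are M3_CHO or M5_CHO lines (human receptors) with Ca++ indicator in probenecid-containing HEPES/HBSS buffer. Percent activity is referenced to carbachol EC100, and curves come from four-parameter nonlinear regression.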

| Compound | Emax [1] [%] | EC50 [1] [nM] | Emax [2] [%] | EC50 [2] [nM] |
| --- | --- | --- | --- | --- |
| Cc1nccnc1N1CC2(CC[C@@H](N3CCC(c4ccccc4OCC(C)(C)O)CC3)C2)C1 [Example 5T, (R)-2-methyl-1-(2-(1-(2-(3-methylpyrazin-2-yl)-2-azaspiro[3.4]octan-6-yl)piperidin-4-yl)phenoxy)propan-2-ol] | 34 | 537 | 0 | > 25000 |
| CC(C)(O)COc1ccccc1C1CCN([C@@H]2CCC3(C2)CN(c2ncncn2)C3)CC1 [Example 5U, (R)-1-(2-(1-(2-(1,3,5-triazin-2-yl)-2-azaspiro[3.4]octan-6-yl)piperidin-4-yl)phenoxy)-2-methylpropan-2-ol] | 2 | 672 | 0 | > 25000 |
| COc1ccc(F)cc1C1CCN([C@@H]2CCC3(C2)CN(c2ccnnc2)C3)CC1 [Example 5V, (R)-6-(4-(5-fluoro-2-methoxyphenyl)piperidin-1-yl)-2-(pyridazin-4-yl)-2-azaspiro[3.4]octane] | 60 | 215 | 0 | > 25000 |
| Fc1cccc(C2CCN([C@@H]3CCC4(C3)CN(c3cncnc3)C4)CC2)c1OC1COC1 [Example 5W, (R)-6-(4-(3-fluoro-2-(oxetan-3-yloxy)phenyl)piperidin-1-yl)-2-(pyrimidin-5-yl)-2-azaspiro[3.4]octane] | 60 | 52 | 0 | > 25000 |
| COCCOc1ccccc1C1CCN([C@@H]2CCC3(C2)CN(c2cccnn2)C3)CC1 [Example 5X, (R)-6-(4-(2-(2-methoxyethoxy)phenyl)piperidin-1-yl)-2-(pyridazin-3-yl)-2-azaspiro[3.4]octane] | 0 | > 25000 | 0 | > 25000 |
| COCCOc1ccccc1C1CCN([C@@H]2CCC3(C2)CN(c2cnc(C)cn2)C3)CC1 [Example 5Y, (R)-6-(4-(2-(2-methoxyethoxy)phenyl)piperidin-1-yl)-2-(5-methylpyrazin-2-yl)-2-azaspiro[3.4]octane] | 0 | > 25000 | 0 | > 25000 |
| COCCOc1ccccc1C1CCN([C@@H]2CCC3(C2)CN(c2ccnnc2)C3)CC1 [Example 5Z, (R)-6-(4-(2-(2-methoxyethoxy)phenyl)piperidin-1-yl)-2-(pyridazin-4-yl)-2-azaspiro[3.4]octane] | 21 | 413 | 0 | > 25000 |
| O=C(C1COC1)N1CC2(CC[C@@H](N3CCC(c4ccc(F)cc4OC(F)F)CC3)C2)C1 [Example 6B, (R)-(6-(4-(2-(difluoromethoxy)-4-fluorophenyl)piperidin-1-yl)-2-azaspiro[3.4]octan-2-yl)(oxetan-3-yl)methanone] | 90 | 12 | 0 | > 25000 |
| CC(C)Oc1cc(F)ccc1C1CCN([C@@H]2CCC3(C2)CN(C(=O)C2COC2)C3)CC1 [Example 6D, (R)-(6-(4-(4-fluoro-2-isopropoxyphenyl)piperidin-1-yl)-2-azaspiro[3.4]octan-2-yl)(oxetan-3-yl)methanone] | 18 | 18 | 0 | > 25000 |
| O=C(N1CC2(CC[C@@H](N3CCC(c4ccccc4C4CCOCC4)CC3)C2)C1)C1(F)CC1 [Example 6E, (R)-(1-fluorocyclopropyl)(6-(4-(2-(tetrahydro-2H-pyran-4-yl)phenyl)piperidin-1-yl)-2-azaspiro[3.4]octan-2-yl)methanone] | 67 | 120 | 0 | > 25000 |
| O=C(C1COC1)N1CC2(CC[C@@H](N3CCC(c4ccccc4OC4CC4)CC3)C2)C1 [Example 7A, (R)-(6-(4-(2-cyclopropoxyphenyl)piperidin-1-yl)-2-azaspiro[3.4]octan-2-yl)(oxetan-3-yl)methanone] | 75 | 9 | 9 | 9780 |
| CC(C)(F)COc1ccccc1C1CCN([C@@H]2CCC3(C2)CN(C(=O)C2COC2)C3)CC1 [Example 7B, (R)-(6-(4-(2-(2-fluoro-2-methylpropoxy)phenyl)piperidin-1-yl)-2-azaspiro[3.4]octan-2-yl)(oxetan-3-yl)methanone] | 78 | 15 | 0 | > 25000 |
| O=C(C1COC1)N1CC2(CC[C@@H](N3CCC(c4ccccc4Oc4nccs4)CC3)C2)C1 [Example 7C, (R)-oxetan-3-yl(6-(4-(2-(thiazol-2-yloxy)phenyl)piperidin-1-yl)-2-azaspiro[3.4]octan-2-yl)methanone] | 87 | 11 | 0 | > 25000 |
| CC(C)(O)CCOc1ccccc1C1CCN([C@@H]2CCC3(C2)CN(C(=O)C2COC2)C3)CC1 [Example 7CC, (R)-(6-(4-(2-(3-hydroxy-3-methylbutoxy)phenyl)piperidin-1-yl)-2-azaspiro[3.4]octan-2-yl)(oxetan-3-yl)methanone] | 94 | 6 | 0 | > 25000 |
| N#CCCOc1ccccc1C1CCN([C@@H]2CCC3(C2)CN(C(=O)C2COC2)C3)CC1 [Example 7D, (R)-3-(2-(1-(2-(oxetane-3-carbonyl)-2-azaspiro[3.4]octan-6-yl)piperidin-4-yl)phenoxy)propanenitrile] | 114 | 3 | 0 | > 25000 |
| O=C(C1COC1)N1CC2(CC[C@@H](N3CCC(c4ccccc4OCCOC(F)(F)F)CC3)C2)C1 [Example 7DD, (R)-oxetan-3-yl(6-(4-(2-(2-(trifluoromethoxy)ethoxy)phenyl)piperidin-1-yl)-2-azaspiro[3.4]octan-2-yl)methanone] | 86 | 116 | 0 | > 25000 |
| O=C(C1COC1)N1CC2(CC[C@@H](N3CCC(c4ccccc4OC[C@@H]4CCOC4)CC3)C2)C1 [Example 7E, oxetan-3-yl((R)-6-(4-(2-(((R)-tetrahydrofuran-3-yl)methoxy)phenyl)piperidin-1-yl)-2-azaspiro[3.4]octan-2-yl)methanone] | 101 | 46 | 0 | > 25000 |
| O=C(C1COC1)N1CC2(CC[C@@H](N3CCC(c4ccccc4OCCOC4COC4)CC3)C2)C1 [Example 7EE, (R)-oxetan-3-yl(6-(4-(2-(2-(oxetan-3-yloxy)ethoxy)phenyl)piperidin-1-yl)-2-azaspiro[3.4]octan-2-yl)methanone] | 98 | 73 | 0 | > 25000 |
| CC(C)COc1ccccc1C1CCN([C@@H]2CCC3(C2)CN(C(=O)C2COC2)C3)CC1 [Example 7F, (R)-(6-(4-(2-isobutoxyphenyl)piperidin-1-yl)-2-azaspiro[3.4]octan-2-yl)(oxetan-3-yl)methanone] | 75 | 42 | 0 | > 25000 |
| O=C(C1COC1)N1CC2(CC[C@@H](N3CCC(c4ccccc4OC4CCCC4)CC3)C2)C1 [Example 7G, (R)-(6-(4-(2-(cyclopentyloxy)phenyl)piperidin-1-yl)-2-azaspiro[3.4]octan-2-yl)(oxetan-3-yl)methanone] | 65 | 37 | 0 | > 25000 |
